This is an account of results in ChEMBL document CHEMBL1126816, “Inhibition of human leukocyte elastase. 6. Inhibition by 6-substituted penicillin esters” (Bioorg Med Chem Lett, 1993).

Test [1] concerns the target T1, Neutrophil elastase (Homo sapiens, UniProt P08246).
T1 sequence (P08246 whole entry): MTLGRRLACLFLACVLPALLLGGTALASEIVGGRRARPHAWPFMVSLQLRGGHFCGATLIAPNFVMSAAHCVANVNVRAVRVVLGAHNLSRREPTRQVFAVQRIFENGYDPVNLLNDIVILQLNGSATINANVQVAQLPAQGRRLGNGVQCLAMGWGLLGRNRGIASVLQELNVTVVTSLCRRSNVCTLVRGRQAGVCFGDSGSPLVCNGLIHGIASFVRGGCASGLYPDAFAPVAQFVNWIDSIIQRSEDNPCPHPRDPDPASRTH
Kind of test: Inhibitory concentration required against Human Leukocyte Elastase (HLE) for 50% reduction in rate of hydrolysis of (suc-Ala-Ala-Pro-Ala-p-NA) peptide.

In test [2] the target is T1, Neutrophil elastase. As to the kind of experiment: Inhibitory concentration required against Human Leukocyte Elastase (HLE) for 50% reduction in rate of hydrolysis of (suc-Ala-Ala-Pro-Ala-p-NA) peptide;compound was inactive.

With `C[C@H](OC(=O)NCc1ccccc1)[C@H]1C(=O)N2[C@@H](C(=O)OCc3ccccc3)C(C)(C)S(=O)(=O)[C@H]12`, half-maximal inhibition at Neutrophil elastase [1] (IC50) required 7 µM.
Turning to `C[C@@H](OC(=O)NCc1ccccc1)[C@@H]1C(=O)N2[C@@H](C(=O)OCc3ccccc3)C(C)(C)S(=O)(=O)[C@H]12`, the IC50 at Neutrophil elastase [1] amounted to 10 µM.
Take `C[C@@H](OC(=O)NCc1ccccc1)[C@H]1C(=O)N2[C@@H](C(=O)OCc3ccccc3)C(C)(C)S(=O)(=O)[C@H]12`: the IC50 against Neutrophil elastase [1] is 0.7 µM.
The same measure, in the same setting: the result for `C[C@H](OC(=O)NCc1ccccc1)[C@@H]1C(=O)N2[C@@H](C(=O)OCc3ccccc3)C(C)(C)S(=O)(=O)[C@H]12` reads 0.3 µM; that for `CC1(C)[C@H](C(=O)OCc2ccccc2)N2C(=O)[C@H](Cl)[C@H]2S1(=O)=O`, 14 µM; that for `CO[C@H]1C(=O)N2[C@@H](C(=O)OC(C)(C)C)C(C)(C)S(=O)(=O)[C@H]12`, above 20 µM.
`CC1(C)[C@H](C(=O)OCC(F)(F)F)N2C(=O)[C@H](NC(=O)C(F)(F)F)[C@H]2S1(=O)=O` had an IC50 on Neutrophil elastase [1] of 0.1 µM.
For the molecule `CC1(C)S[C@@H]2[C@@H](NC(=O)C(F)(F)F)C(=O)N2[C@H]1C(=O)OCc1ccccc1`, it took 4 µM to reach half-maximal inhibition against Neutrophil elastase [1] (IC50).
On the same count and under the same terms, the same measure for `CC(=O)O[C@H]1C(=O)N2[C@@H](C(=O)OCc3ccccc3)C(C)(C)S(=O)(=O)[C@H]12`: 0.2 µM; for `CC(=O)O[C@H]1C(=O)N2[C@@H](C(=O)OCc3ccccc3)C(C)(C)[S+]([O-])[C@@H]12` (stereo not given in full): 5 µM.
On the same count and under the same terms, the same measure for `CC1(C)[C@H](C(=O)OCc2ccccc2)N2C(=O)[C@H](OC(=O)Cc3ccccc3)[C@H]2S1(=O)=O`: 4 µM; for `CC1(C)[C@H](C(=O)OCC(F)(F)F)N2C(=O)[C@@H](NC(=O)C(F)(F)F)[C@H]2S1(=O)=O`: 3 µM.
On the same count and under the same terms, the same measure for `CC1(C)[C@H](C(=O)OCc2ccccc2)N2C(=O)[C@H](OCc3ccccc3)[C@H]2S1(=O)=O`: 4 µM.
For the molecule `COC(=O)[C@@H]1N2C(=O)[C@H](OC)[C@H]2S(=O)(=O)C1(C)C`, on Neutrophil elastase [1], the IC50 was found to be 20 µM.
`CCO[C@H]1C(=O)N2[C@@H](C(=O)OCc3ccccc3)C(C)(C)S(=O)(=O)[C@H]12`: at Neutrophil elastase [1], the IC50 was determined as 2 µM.
Same read-out and setting: the result for `Cc1ccc(S(=O)(=O)O[C@H]2C(=O)N3[C@@H](C(=O)OCc4ccccc4)C(C)(C)S(=O)(=O)[C@H]23)cc1` reads 0.05 µM; that for `CO[C@@]1(NC(=O)C(F)(F)F)C(=O)N2[C@@H](C(=O)OCc3ccccc3)C(C)(C)S(=O)(=O)[C@@H]21`, 9 µM.
The same measure, in the same setting: the result for `CN(C(=O)C(F)(F)F)[C@@H]1C(=O)N2[C@@H](C(=O)OCc3ccccc3)C(C)(C)S(=O)(=O)[C@H]12` reads 0.7 µM; that for `CC1(C)[C@H](C(=O)OCc2ccccc2)N2C(=O)[C@H](NC(=O)C(F)(F)F)[C@H]2S1(=O)=O`, 0.15 µM.
For `CC1(C)[C@H](C(=O)OCc2ccccc2)N2C(=O)[C@@H](NC(=O)C(F)(F)F)[C@H]2S1(=O)=O`, the IC50 against Neutrophil elastase [2] was 2 µM.
With `CC1(C)S[C@@H]2[C@H](NC(=O)C(F)(F)F)C(=O)N2[C@H]1C(=O)OCc1ccccc1`, the IC50 on Neutrophil elastase [1] is 12 µM.
The same measure, in the same setting: the result for `CC1(C)[C@H](C(=O)OCc2ccccc2)N2C(=O)[C@@](C)(NC(=O)C(F)(F)F)[C@H]2S1(=O)=O` reads above 20 µM; that for `CC1(C)[C@H](C(=O)OCc2ccccc2)N2C(=O)[C@@H](COC(=O)NCc3ccccc3)[C@H]2S1(=O)=O`, 0.7 µM.
On the same count and under the same terms, the result for `CC1(C)[C@H](C(=O)OCc2ccccc2)N2C(=O)[C@H](OC(=O)COc3ccccc3)[C@H]2S1(=O)=O` reads 5 µM; that for `CC1(C)[C@H](C(=O)OCc2ccccc2)N2C(=O)[C@H](COC(=O)NCc3ccccc3)[C@H]2S1(=O)=O`, 4 µM; that for `CC(=O)O[C@H]1C(=O)N2[C@@H]1SC(C)(C)[C@@H]2C(=O)OCc1ccccc1`, 10 µM.
`CO[C@H]1C(=O)N2[C@@H](C(=O)OCC(F)(F)F)C(C)(C)S(=O)(=O)[C@H]12` displayed an IC50 against Neutrophil elastase [1] of 4 µM.
In the case of `CN(C(=O)C(F)(F)F)[C@H]1C(=O)N2[C@@H](C(=O)OCc3ccccc3)C(C)(C)S(=O)(=O)[C@H]12`, the IC50 against Neutrophil elastase [1] was 0.2 µM.
On Neutrophil elastase [1], `CO[C@]1(NC(=O)C(F)(F)F)C(=O)N2[C@@H](C(=O)OCc3ccccc3)C(C)(C)S(=O)(=O)[C@@H]21` showed an IC50 of 0.8 µM.
Still for that read-out and setting: the result for `CC[C@@]1(NC(=O)C(F)(F)F)C(=O)N2[C@@H](C(=O)OCc3ccccc3)C(C)(C)S(=O)(=O)[C@@H]21` reads 3 µM.

By IC50 is commonly meant the concentration that inhibits the measured activity by half.
